Measurements reported in US11518981B2, “Methods of enhancing engraftment activity of hematopoietic stem cells” (CHILDREN'S HOSPITAL MEDICAL CENTER, priority 2017, dated 2022).

What was measured:
[1] = tested on: human MPB derived CD34^+ cells; assay: multi-lineage reconstitution (myeloid / B-lymphoid) in bone marrow of NSG mice; type: in vivo
Excerpt: NOD.Cg-Prkdcscid Il2rgtm1Wjl/SzJ (NSG) mice were purchased from The Jackson Laboratory (Bar Harbor, Me.). All animals were bred and maintained in a specific pathogen-free environment and all experiments were approved by the Institutional Animal Care and Use (IACUC) Committee. Male and female NSG mice aged 8 to 14 weeks old were fed doxycycline chow (TestDiet; Modified Prolab RMH-1500 with 0.0625% doxycycline) a week prior to, during and for 2 weeks post irradiation. Human engraftment was analyzed in bone marrow (BM), via BM aspirates performed at 6 and 12 weeks from left and right femurs. After sacrifice at 24 weeks, marrow from all of the primary mice (1 T) was harvested. Peripheral blood analysis was also performed in some experiments. Secondary transplants (2 T) were performed after mouse CD45^+ cells were depleted from BM harvested from each 1 T mouse separately, using Biotin Rat Anti-Mouse CD45 (BD Biosciences 553078) and Streptavidin Particles Plus-DM (BD Biosciences 557812) and injected into one irradiated (280 cGy) secondary NSG mouse. For calculating competitive repopulating units (CRU) from limiting dilution transplantation, the L-CALC^TM software (Stem Cell Technologies) was used. All of the mice used for this study were randomly assigned to a treatment group. No animals were excluded from the analysis. PE-Cyanine 7 or APC-EFLUOR® 780, APC- or PE-conjugated antibodies directed to human CD34 (BD Biosciences 560710 or 555824), CD38 (eBiosciences, San Diego, Calif. 47-0389-42), CD90 (BioLegend 328120), CD45RA (eBiosciences 17-0458-42), CD49f (BD Biosciences 555736), CD45 (BD 55485 or Biolegend 304026), CD33 (eBiosciences 25-0338-42), CD19 (BD Biosciences 557791), or CD3 (BD Biosciences 555340). Cells ( 5×10^5-1×10^6) were used to label with antibodies as per manufacturer instructions with the appropriate isotype controls. For phospho-flow, primary antibodies phospho-[…]), phospho-p44/42 MAPK (ERK 1⁄2) […]; […]), and phospho-JNK […] PE conjugate; […]) (all from Cell Signaling) were used for staining overnight followed by wash and secondary antibody stain including Goat anti-Rabbit IgG (H+L) or Goat anti-Rabbit IgG (H+L) or Pacific Blue (P-10994) antibody. Apoptosis assay was performed using PE Annexin V Apoptosis Detection Kit (BD Biosciences 559763) according to the manufacturer's instructions. Total ROS and mitochondrial specific ROS were detected using 10 μM CM-H2DCFDA (ThermoFisher Scientific C6827) and 5 μM MITOSOXTM Red (Red Mitochondrial Superoxide Indicator) (ThermoFisher Scientific M36008) respectively, following manufacturer's instructions.

[2] = tested on: CD34^+ cells; assay: total CD34^+ cell number and viability (trypan blue); type: cell-based, human; conditions: ex vivo culture with/without p38i
Description: Freshly isolated CD34^+ cells were used, wherever possible, and especially for 0 h controls. In some experiments cryopreserved CD34^+ cells were thawed for 4 hrs in IMDM containing cytokines, then washed and used for experiments. CD34^+ cells were transduced in X-VIVO 10™ (Lonza) medium supplemented with 2% human serum albumin (Baxter), recombinant human Flt-3 ligand (Flt3-L; 200 ng/mL), stem cell factor (SCF; 300 ng/mL), thrombopoietin (TPO; 100 ng/mL) (all cytokines obtained from PeproTech), and penicillin-streptomycin (ThermoFisher Scientific) on non-tissue culture treated plates coated with retronectin (4 μg/cm2, CH-296, Takara Bio Inc.). For LV transduction, CD34^+ cells (2-5×10^6/mL) were pre-stimulated for 4-8 hours and transduced twice with lentivirus vector (LV) maintaining the vector concentration between 5×10^7 to 1×10^8 infectious unit (IU) per mL of media volume, 12-14 hours apart. Cells were kept in culture for a total of either 18-24 hours, 36-42 hours or 72-96 hours. For RV transduction, human CD34^+ cells were pre-stimulated for ˜2 days (42-48 hours) hours at a cell density of 3×10^5 cells/ml. Retronectin coated tissue culture flasks or plates were preloaded at room temperature with GALV pseudotyped RV twice for one hour each. The vector supernatant was removed and the cells were loaded into the RV loaded retronectin coated flasks. […]

[3] = tested on: human CD34^+ cells; assay: GFP marking in human grafts of NSG mice; type: in vivo; conditions: limiting dilution transplant; also long-termed secondary human grafts
Excerpt: NOD.Cg-Prkdcscid Il2rgtm1Wjl/SzJ (NSG) mice were purchased from The Jackson Laboratory (Bar Harbor, Me.). All animals were bred and maintained in a specific pathogen-free environment and all experiments were approved by the Institutional Animal Care and Use (IACUC) Committee. Male and female NSG mice aged 8 to 14 weeks old were fed doxycycline chow (TestDiet; Modified Prolab RMH-1500 with 0.0625% doxycycline) a week prior to, during and for 2 weeks post irradiation. Human engraftment was analyzed in bone marrow (BM), via BM aspirates performed at 6 and 12 weeks from left and right femurs. After sacrifice at 24 weeks, marrow from all of the primary mice (1 T) was harvested. Peripheral blood analysis was also performed in some experiments. Secondary transplants (2 T) were performed after mouse CD45^+ cells were depleted from BM harvested from each 1 T mouse separately, using Biotin Rat Anti-Mouse CD45 (BD Biosciences 553078) and Streptavidin Particles Plus-DM (BD Biosciences 557812) and injected into one irradiated (280 cGy) secondary NSG mouse. […] Total ROS and mitochondrial specific ROS were detected using 10 μM CM-H2DCFDA (ThermoFisher Scientific C6827) and 5 μM MITOSOXTM Red (Red Mitochondrial Superoxide Indicator) (ThermoFisher Scientific M36008) respectively, following manufacturer's instructions.

Cc1ccc(-n2nc(C(C)(C)C)cc2NC(=O)Nc2ccc(OCCN3CCOCC3)c3ccccc23)cc1 [p38i, 1-[5-tert-butyl-2-(4-methylphenyl)pyrazol-3-yl]-3-[4-(2-morpholin-4-ylethoxy)naphthalen-1-yl]urea]
myeloid skewing of the transduced progeny ([1]; 24 week 1 T, cycling HSCs transduced (RV group)): somewhat reduced, but still quite significant
multi-potentiality of the graft ([1]; 24 week 1 T, gene transfer in first 24 h (non-cycling HSCs), culture up to 96 h): restored the multi-potentiality of the graft at 24 week (1 T) to levels similar to 0 h controls
lineage balance in transduced HSCs progeny ([1]; limiting dilution transplant, 42 h LV, 6 mo post 1 T): had less effect
lineage balance in untransduced progeny ([1]; limiting dilution transplant, 42 h LV, 6 mo post 1 T, higher HSPC dosage): sufficient to restore lineage balance
total number of CD34^+ cells, or viability in vitro [2]: no effect
GFP marking [3]: did not have any effect
